The source made the active and inactive calls. The calls are words filed in the database; no cut-off is given here.
Tests used:
Type in all cases: functional, cell-based
[1] = test system: Glutamate receptor ionotropic, kainate 2 (Homo sapiens), Q13002 [L439C]; assay: Agonist activity at MAG conjugated light activated iGluR6 L439C mutant expressed in human HEK293 cells assessed as increase inward currents by whole cell patch clamp method
[2] = test system: Glutamate receptor ionotropic, kainate 2 (Homo sapiens), Q13002 [L439C]; assay: Agonist activity at iGluR6 L439C mutant expressed in human HEK293 cells assessed as increase in intracellular Ca2+ levels illuminated at 500 nm wavelength by […] staining based fluorimetric method
[3] = test system: Glutamate receptor ionotropic, kainate 2 (Homo sapiens), Q13002 [L439C]; assay: Agonist activity at iGluR6 L439C mutant expressed in human HEK293 cells assessed as increase in intracellular Ca2+ levels illuminated at 380 nm wavelength by […] staining based fluorimetric method

Chain of Glutamate receptor ionotropic, kainate 2 (Homo sapiens), Q13002 [L439C] (Q13002 whole entry L439C): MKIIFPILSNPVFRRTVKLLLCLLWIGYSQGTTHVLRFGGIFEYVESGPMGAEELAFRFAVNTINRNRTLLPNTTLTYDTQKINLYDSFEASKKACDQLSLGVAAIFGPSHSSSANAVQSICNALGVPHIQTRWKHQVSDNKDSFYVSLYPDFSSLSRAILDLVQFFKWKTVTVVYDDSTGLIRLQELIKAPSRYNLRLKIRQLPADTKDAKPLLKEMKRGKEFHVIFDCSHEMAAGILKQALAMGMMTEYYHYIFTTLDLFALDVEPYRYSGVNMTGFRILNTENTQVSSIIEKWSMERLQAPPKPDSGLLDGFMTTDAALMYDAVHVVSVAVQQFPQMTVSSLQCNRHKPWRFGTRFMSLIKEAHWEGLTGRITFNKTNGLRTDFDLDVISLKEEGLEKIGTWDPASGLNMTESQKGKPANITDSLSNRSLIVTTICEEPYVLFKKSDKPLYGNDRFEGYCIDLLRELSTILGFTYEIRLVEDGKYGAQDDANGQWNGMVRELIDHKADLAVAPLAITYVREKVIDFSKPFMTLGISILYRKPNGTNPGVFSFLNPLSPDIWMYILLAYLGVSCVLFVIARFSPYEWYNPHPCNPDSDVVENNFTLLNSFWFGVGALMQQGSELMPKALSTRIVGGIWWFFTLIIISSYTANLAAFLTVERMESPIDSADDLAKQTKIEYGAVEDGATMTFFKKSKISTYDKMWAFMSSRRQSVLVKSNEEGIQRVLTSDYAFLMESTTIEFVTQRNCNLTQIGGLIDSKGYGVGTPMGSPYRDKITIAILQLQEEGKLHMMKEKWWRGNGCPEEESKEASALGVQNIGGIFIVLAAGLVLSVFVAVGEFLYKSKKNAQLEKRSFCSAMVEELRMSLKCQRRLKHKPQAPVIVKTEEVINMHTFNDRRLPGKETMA

| Activity [1] | Activity [2] | Activity [3] | SMILES |
| --- | --- | --- | --- |
| Active |  |  | N[C@@H](C[C@@H](CCCC(=O)NCC(=O)Nc1ccccc1)C(=O)O)C(=O)O |
| Active |  |  | N[C@@H](CCC(=O)O)C(=O)O |
|  | inactive | Active | N[C@@H](C[C@@H](CCCC(=O)NCC(=O)Nc1ccc(/N=N/c2ccc(NC(=O)CN3C(=O)C=CC3=O)cc2)cc1)C(=O)O)C(=O)O |
